Data: patent publication US20190085013A1, “NUCLEOTIDE AND NUCLEOSIDE THERAPEUTIC COMPOSITIONS AND USES RELATED THERETO” (EMORY UNIVERSITY, priority 2016, published 2019)

Legend:
[1] = molecular target: NS5B-621 from HCV GT-1b Con-1 (Hepatitis C virus genotype 1b, UniProt Q9WMX2); assay: NS5B RNA-dependent RNA polymerase inhibition assay; type: biochemical; details: 1 μM NTP substrates including either [32P]-CTP or [32P]-UTP, columns not distinguished
Description: Compounds were assayed for inhibition of NS5B-621 from HCV GT-1b Con-1. Reactions included purified recombinant enzyme, 1 u/μL negative-strand HCV IRES RNA template, and 1 μM NTP substrates including either [^32P]-CTP or [^32P]-UTP. Assay plates were incubated at 27° C. for 1 hour before quench. [^32P] incorporation into macromolecular product was assessed by filter binding.

HCV Replicon 1a-H77 = assay: HCV replicon GT-1a luciferase assay; type: cell-based; details: Hepatitis C virus, GT1A, GT-1a H77 replicon
HCV Replicon 1b-Con1 = assay: HCV replicon GT-1b luciferase assay; type: cell-based; details: Hepatitis C virus, GT1B, read-out: HCV Replicon 1b-Con1 EC50
Text: Cell Culture—The reporter cell line Huh-luc/neo-ET was obtained from Dr. Ralf Bartenschlager (Department of Molecular Virology, Hygiene Institute, University of Heidelberg, Germany) by ImQuest BioSciences through a specific licensing agreement. This cell line harbors the persistently replicating I389luc-ubi-neo/NS3-3′/ET replicon containing the firefly luciferase gene-ubiquitin-neomycin phosphotransferase fusion protein and EMCV IRES driven NS3-5B HCV coding sequences containing the ET tissue culture adaptive mutations (E1202G, Tl2081, and K1846T). A stock culture of the Huh-luc/neo-ET was expanded by culture in DMEM supplemented with I 0% FCS, 2 mM glutamine, penicillin ([…])/streptomycin (100 μg/mL) and I× nonessential amino acids plus 1 mg/mL G418. The cells were split 1:4 and cultured for two passages in the same media plus 250 μg/mL G418. […] 5% C02 then anti-HCV activity was measured by luciferase endpoint. […]
Measurement of Virus Replication-HCV replication from the replicon assay system was measured by luciferase activity using the britelite plus luminescence reporter gene kit according to the manufacturer's instructions (Perkin Elmer, Shelton, Conn.). […] The well contents were transferred to a white 96-well plate and luminescence was measured within 15 minutes using the Wallac 1450Microbeta Trilux liquid scintillation counter. […]

Structure (SMILES)	IC50 ([1]; first IC50 column) [µM]	IC50 ([1]; second IC50 column) [µM]	EC50 (HCV Replicon 1a-H77) [µM]	EC50 (HCV Replicon 1b-Con1) [µM]
O=c1ccn([C@@H]2O[C@H](COP(=O)(O)OP(=O)(O)OP(=O)(O)O)[C@@H](O)[C@]2(O)CF)c(=O)[nH]1 [DRIVE-0060]	1	13.4		
CC(C)OC(=O)[C@H](C)N[P@](=O)(OC[C@H]1O[C@@H](n2ccc(=O)[nH]c2=O)[C@@](O)(CF)[C@@H]1O)Oc1ccccc1 [DRIVE-0087]			0.54	0.75
